ChEMBL document CHEMBL1128983, “Synthesis and biological activity of novel sialyl-lewisX conjugates” (Bioorg Med Chem Lett, 1996)

target: T1, E-selectin (Homo sapiens, UniProt P16581); test: Compound was tested for inhibition of HL60 cell adhesion to recombinant Selectin E IgG fusion protein obtained from transfected COS cells; type: functional, cell-based, HL-60
T1 sequence (P16581 whole entry): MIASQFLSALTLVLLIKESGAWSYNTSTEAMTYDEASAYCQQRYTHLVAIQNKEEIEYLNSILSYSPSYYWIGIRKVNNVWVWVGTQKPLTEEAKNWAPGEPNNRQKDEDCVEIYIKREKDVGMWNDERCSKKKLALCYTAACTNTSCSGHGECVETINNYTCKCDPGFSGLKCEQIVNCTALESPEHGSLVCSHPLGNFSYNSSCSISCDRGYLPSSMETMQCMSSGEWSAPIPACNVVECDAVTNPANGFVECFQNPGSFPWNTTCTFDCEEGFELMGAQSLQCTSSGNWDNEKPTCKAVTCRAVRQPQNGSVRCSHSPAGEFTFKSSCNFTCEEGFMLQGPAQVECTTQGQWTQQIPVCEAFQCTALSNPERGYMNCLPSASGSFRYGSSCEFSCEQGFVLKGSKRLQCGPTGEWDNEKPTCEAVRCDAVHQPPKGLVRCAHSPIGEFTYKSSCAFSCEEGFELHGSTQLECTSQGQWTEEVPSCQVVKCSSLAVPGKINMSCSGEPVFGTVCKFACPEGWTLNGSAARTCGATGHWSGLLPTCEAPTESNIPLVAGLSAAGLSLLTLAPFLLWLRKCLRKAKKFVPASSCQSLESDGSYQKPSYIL

| Compound | IC50 |
| --- | --- |
| CC(=O)N[C@@H]1[C@H](OCCCCCCNC(=O)[C@H]2CC[C@H](CN3C(=O)C=CC3=O)CC2)O[C@@H](CO)[C@@H](O[C@@H]2O[C@@H](CO)[C@H](O)[C@H](O[C@]3(C(=O)O)C[C@@H](O)[C@@H](NC(C)=O)[C@H]([C@H](O)[C@H](O)CO)O3)[C@@H]2O)[C@@H]1O[C@@H]1O[C@@H](C)[C@@H](O)[C@H](O)[C@@H]1O | 0.28 mM |
| CC(=O)N[C@@H]1[C@H](OCCCCCC/N=C(S)/N=C2\C=CC(=C3c4ccc(O)cc4Oc4cc(O)ccc43)C(C(=O)O)=C2)O[C@@H](CO)[C@@H](O[C@@H]2O[C@@H](CO)[C@H](O)[C@H](O[C@]3(C(=O)O)C[C@@H](O)[C@@H](NC(C)=O)[C@H]([C@H](O)[C@H](O)CO)O3)[C@@H]2O)[C@@H]1O[C@@H]1O[C@@H](C)[C@@H](O)[C@H](O)[C@@H]1O | 0.65 mM |
| CC(=O)N[C@@H]1[C@H](OCCCCCCNC(=O)CCCC[C@@H]2SC[C@@H]3NC(=O)N[C@@H]32)O[C@@H](CO)[C@@H](O[C@@H]2O[C@@H](CO)[C@H](O)[C@H](O[C@]3(C(=O)O)C[C@@H](O)[C@@H](NC(C)=O)[C@H]([C@H](O)[C@H](O)CO)O3)[C@@H]2O)[C@@H]1O[C@@H]1O[C@@H](C)[C@@H](O)[C@H](O)[C@@H]1O | 0.59 mM |

More lines, now with the values ahead:

| IC50 | Compound |
| --- | --- |
| > 1 mM | CC(=O)N[C@H]1[C@H]([C@H](O)[C@H](O)CO)O[C@@](O[C@@H]2[C@H](O)[C@H](O[C@H]3[C@H](O[C@@H]4O[C@@H](C)[C@@H](O)[C@H](O)[C@@H]4O)[C@H](NC(C)=O)[C@H](NC(=O)[C@H](C)NC(=O)[C@H](CC(=O)O)NC(=O)CNC(=O)[C@@H](N)CCCN=C(N)N)O[C@H]3CO)O[C@@H](CO)[C@@H]2O)(C(=O)O)C[C@H]1O |
| 5 mM | CC(=O)N[C@H]1[C@H]([C@H](O)[C@H](O)CO)O[C@@](O[C@@H]2[C@H](O)[C@H](O[C@H]3[C@H](O[C@@H]4O[C@@H](C)[C@@H](O)[C@H](O)[C@@H]4O)[C@H](NC(C)=O)[C@H](NC(=O)[C@H](C)NC(=O)[C@@H]4CCCN4C(=O)CNC(=O)CNC(=O)[C@@H]4CCCN4C(=O)CN)O[C@H]3CO)O[C@@H](CO)[C@@H]2O)(C(=O)O)C[C@H]1O |
| 1 mM | CC(=O)N[C@@H]1[C@H](OCCCCCCN)O[C@@H](CO)[C@@H](O[C@@H]2O[C@@H](CO)[C@H](O)[C@H](O[C@]3(C(=O)O)C[C@@H](O)[C@@H](NC(C)=O)[C@H]([C@H](O)[C@H](O)CO)O3)[C@@H]2O)[C@@H]1O[C@@H]1O[C@@H](C)[C@@H](O)[C@H](O)[C@@H]1O |
| 1.15 mM | CC(=O)N[C@@H]1[C@H](OCCCCCCNC(=O)CCC(=O)O)O[C@@H](CO)[C@@H](O[C@@H]2O[C@@H](CO)[C@H](O)[C@H](O[C@]3(C(=O)O)C[C@@H](O)[C@@H](NC(C)=O)[C@H]([C@H](O)[C@H](O)CO)O3)[C@@H]2O)[C@@H]1O[C@@H]1O[C@@H](C)[C@@H](O)[C@H](O)[C@@H]1O |
